The results in this text go back to ChEMBL document CHEMBL5030557, “Tandem Repeat of a Short Human Chemerin-Derived Peptide and Its Nontoxic d-Lysine-Containing Enantiomer Display Broad-Spectrum Antimicrobial and Antitubercular Activities” (J Med Chem, 2021).

In general, inhibition refers to the share of the control response that was lost under treatment.

The subject of this assay is Mycobacterium tuberculosis variant bovis. Kind of assay: Anti-mycobacterial activity against Mycobacterium bovis assessed as growth inhibition at 16.13 uM relative to control. It counts as functional.

`CC(C)C[C@H](NC(=O)[C@H](CCCNC(=N)N)NC(=O)CNC(=O)[C@H](CC(C)C)NC(=O)[C@@H](NC(=O)[C@@H](CCCCN)NC(=O)[C@@H](NC(=O)[C@H](CC(C)C)NC(=O)[C@H](CCCNC(=N)N)NC(=O)CNC(=O)[C@H](CC(C)C)NC(=O)[C@@H](NC(=O)[C@@H](N)CCCCN)C(C)C)C(C)C)C(C)C)C(=O)N[C@H](C(N)=O)C(C)C`: the inhibition at 16.13 µM came out at 95%. On to `CC(C)C[C@H](NC(=O)[C@H](CCCNC(=N)N)NC(=O)CNC(=O)[C@H](CC(C)C)NC(=O)[C@@H](NC(=O)[C@H](CCCCN)NC(=O)[C@@H](NC(=O)[C@H](CC(C)C)NC(=O)[C@H](CCCNC(=N)N)NC(=O)CNC(=O)[C@H](CC(C)C)NC(=O)[C@@H](NC(=O)[C@@H](N)CCCCN)C(C)C)C(C)C)C(C)C)C(=O)N[C@H](C(N)=O)C(C)C`, for which the inhibition at 16.13 µM stood at 80%.
